Consider 3 compounds from ChEMBL document CHEMBL3580625, “The synthesis and functional evaluation of a mitochondria-targeted hydrogen sulfide donor, (10-oxo-10-(4-(3-thioxo-3H-1,2-dithiol-5-yl)phenoxy)decyl)triphenylphosphonium bromide (AP39)” (Medchemcomm, 2014).

SMILES strings stand for the structures. Activity calls are given as the source filed them. No cut-off for these calls is given here.

The subject of data set [1] is hCMEC/D3. As to the kind of experiment: Cytoprotective activity in human CMEC/D3 cells assessed as inhibition of SIN-1-induced oxidative stress-mediated toxicity by measuring cell viability at 100 nM preincubated for 1 hr followed by SIN-1 induction measured after 24 hrs by Alamar blue assay in presence of 5-(4-hydroxyphenyl)-3H-1,2-dithiole-3-thione. The data set is classed as functional, cell-based.

Data set [2] has as its system hCMEC/D3. As to the kind of experiment: Cytoprotective activity in human CMEC/D3 cells assessed as inhibition of H2O2-induced oxidative stress-mediated toxicity by measuring cell viability at 100 nM preincubated for 1 hr followed by H2O2 induction measured after 24 hrs by Alamar blue assay in presence of 5-(4-hydroxyphenyl)-3H-1,2-dithiole-3-thione. The class given is functional, cell-based. A general note: The colour change of resazurin is a common sign of viable cells or microbes.

For data set [3], the system named is hCMEC/D3. As to the kind of experiment: Cytoprotective activity in human CMEC/D3 cells assessed as inhibition of H2O2-induced oxidative stress-mediated toxicity by measuring cell viability at 100 nM preincubated for 1 hr followed by H2O2 induction measured after 24 hrs by Alamar blue assay. The data set is classed as functional, cell-based.
The subject of data set [4] is hCMEC/D3. As to the kind of experiment: Cytoprotective activity in human CMEC/D3 cells assessed as inhibition of SIN-1-induced oxidative stress-mediated toxicity by measuring cell viability at 100 nM preincubated for 1 hr followed by SIN-1 induction measured after 24 hrs by Alamar blue assay. The data set is classed as functional, cell-based.
Data set [5] has as its system hCMEC/D3. Description: Cytoprotective activity in human CMEC/D3 cells assessed as inhibition of 4-HNE-induced oxidative stress-mediated toxicity by measuring cell viability at 100 nM preincubated for 1 hr followed by 4-HNE induction measured after 24 hrs by Alamar blue assay. The class given is functional, cell-based.
Data set [6] concerns hCMEC/D3. As to the kind of experiment: Cytoprotective activity in human CMEC/D3 cells assessed as inhibition of 4-HNE-induced oxidative stress-mediated toxicity by measuring cell viability at 100 nM preincubated for 1 hr followed by 4-HNE induction measured after 24 hrs by Alamar blue assay in presence of 5-(4-hydroxyphenyl)-3H-1,2-dithiole-3-thione. The data set is classed as functional, cell-based.

Data set [7] in a line: Cytotoxicity against human CMEC/D3 cells assessed as effect on mitochondrial membrane potential at 100 nM by TMRM fluorescent probe-based fluorimetric analysis. The settings on record: hcmec/d3, 0.1 µM. The data set is classed as cell-based.
The species named for data set [8] is Mus musculus. As to the kind of experiment: Induction of H2S production in mitochondria of mouse bEND.3 cells at 100 nM after 1 hr by MitoTracker Red fluorescent probe-based inverted microscopic analysis. The data set is classed as functional.
Data set [9] can be described thus: Cytotoxicity against human CMEC/D3 cells up to 5 uM after 24 hrs by Alamar blue assay relative to vehicle-treated control. The class given is cell-based. The settings on record: hcmec/d3, 24 h.
Data set [10] relates to hCMEC/D3. Description: Cytoprotective activity in human CMEC/D3 cells assessed as inhibition of SIN-1-induced oxidative stress-mediated loss of mitochondrial membrane potential at 100 nM preincubated for 1 hr followed by SIN-1 induction measured after 24 hrs by TMRM fluorescent probe-based fluorimetric analysis. The data set is classed as functional, cell-based.
For data set [11], the system named is hCMEC/D3. Description: Cytoprotective activity in human CMEC/D3 cells assessed as inhibition of H2O2-induced oxidative stress-mediated loss of mitochondrial membrane potential at 100 nM preincubated for 1 hr followed by H2O2 induction measured after 24 hrs by TMRM fluorescent probe-based fluorimetric analysis. The class given is functional, cell-based.
The subject of data set [12] is hCMEC/D3. As to the kind of experiment: Cytoprotective activity in human CMEC/D3 cells assessed as inhibition of SIN-1-induced mitochondrial production of reactive oxygen species at 100 nM preincubated for 1 hr followed by SIN-1 induction measured after 24 hrs by MitoSox Red probe-based fluorescence assay. The class given is functional, cell-based.
Data set [13] concerns hCMEC/D3. Description: Cytoprotective activity in human CMEC/D3 cells assessed as inhibition of 4-HNE-induced oxidative stress-mediated loss of mitochondrial membrane potential at 100 nM preincubated for 1 hr followed by 4-HNE induction measured after 24 hrs by TMRM fluorescent probe-based fluorimetric analysis. The data set is classed as functional, cell-based.
The subject of data set [14] is hCMEC/D3. Description: Cytoprotective activity in human CMEC/D3 cells assessed as inhibition of rotenone-mediated reduction of ATP level at 100 nM preincubated for 1 hr followed by rotenone induction measured after 18 hrs by firefly lantern luciferase reporter assay. The data set is classed as functional, cell-based.
The species entered for data set [15] is Mus musculus. Description: Induction of H2S production in mouse bEND.3 cells at 100 nM after 1 hr by AzMC fluorescent probe-based inverted microscopic analysis. The data set is classed as functional, cell-based.
In data set [16] the test system is hCMEC/D3. As to the kind of experiment: Cytoprotective activity in human CMEC/D3 cells assessed as inhibition of 4-HNE-induced mitochondrial production of reactive oxygen species at 100 nM preincubated for 1 hr followed by 4-HNE induction measured after 24 hrs by MitoSox Red probe-based fluorescence assay. The data set is classed as functional, cell-based.
Data set [17] relates to hCMEC/D3. As to the kind of experiment: Induction of H2S production in human CMEC/D3 cells after 1 hr by WSP-1 probe-based fluorescence assay. The data set is classed as functional, cell-based.
For data set [18], the system named is hCMEC/D3. As to the kind of experiment: Cytoprotective activity in human CMEC/D3 cells assessed as inhibition of H2O2-induced mitochondrial production of reactive oxygen species at 100 nM preincubated for 1 hr followed by H2O2 induction measured after 24 hrs by MitoSox Red probe-based fluorescence assay. The class given is functional, cell-based.
For data set [19], the system named is hCMEC/D3. Description: Cytoprotective activity in human CMEC/D3 cells assessed as inhibition of rotenone-induced mitochondrial production of reactive oxygen species at 100 nM preincubated for 1 hr followed by rotenone induction by MitoSox Red probe-based fluorescence assay. The data set is classed as functional, cell-based.
Data set [20] in a line: Cytotoxicity against human CMEC/D3 cells assessed as effect on mitochondrial oxidant production at 100 nM by MitoSox Red probe-based fluorescence assay. As to conditions: hcmec/d3, 0.1 µM. The data set is classed as cell-based.

On to `O=C(O)CCCCCCCCC[P+](c1ccccc1)(c1ccccc1)c1ccccc1`, for which the inhibition result in the data set with hCMEC/D3 [1], in the data set with hCMEC/D3 [2], with hCMEC/D3 [3], in the data set with hCMEC/D3 [4], in the data set on hCMEC/D3 [5] and in the data set with hCMEC/D3 [6] was “inactive” in each case.

As for `O=C(CCCCCCCCC[P+](c1ccccc1)(c1ccccc1)c1ccccc1)Oc1ccc(-c2cc(=S)ss2)cc1.[Br-]`, the Activity result in data set [7] is “Non-toxic”; in data set [9], “Non-toxic”; with hCMEC/D3 [17] it was “Dose-dependent effect”; in data set [20], “Non-toxic”. Besides, the outcome in the data set filed under Mus musculus [8] and in the data set listed under Mus musculus [15] was Active. Also, the inhibition result in the data set with hCMEC/D3 [10], in the data set on hCMEC/D3 [11], with hCMEC/D3 [12], in the data set with hCMEC/D3 [13], in the data set on hCMEC/D3 [14] and in the data set with hCMEC/D3 [16] was “Active” each time. The inhibition result in the data set on hCMEC/D3 [18] and in the data set with hCMEC/D3 [19] was “Active” each time.

Regarding `Oc1ccc(-c2cc(=S)ss2)cc1`, the inhibition result with hCMEC/D3 [3], in the data set with hCMEC/D3 [4] and in the data set on hCMEC/D3 [5] was “inactive” in each case.
